Target: ABCG2 (Homo sapiens, UniProt Q9UNQ0)
Assay: biochemical

Chain of ABCG2 (Q9UNQ0 whole entry): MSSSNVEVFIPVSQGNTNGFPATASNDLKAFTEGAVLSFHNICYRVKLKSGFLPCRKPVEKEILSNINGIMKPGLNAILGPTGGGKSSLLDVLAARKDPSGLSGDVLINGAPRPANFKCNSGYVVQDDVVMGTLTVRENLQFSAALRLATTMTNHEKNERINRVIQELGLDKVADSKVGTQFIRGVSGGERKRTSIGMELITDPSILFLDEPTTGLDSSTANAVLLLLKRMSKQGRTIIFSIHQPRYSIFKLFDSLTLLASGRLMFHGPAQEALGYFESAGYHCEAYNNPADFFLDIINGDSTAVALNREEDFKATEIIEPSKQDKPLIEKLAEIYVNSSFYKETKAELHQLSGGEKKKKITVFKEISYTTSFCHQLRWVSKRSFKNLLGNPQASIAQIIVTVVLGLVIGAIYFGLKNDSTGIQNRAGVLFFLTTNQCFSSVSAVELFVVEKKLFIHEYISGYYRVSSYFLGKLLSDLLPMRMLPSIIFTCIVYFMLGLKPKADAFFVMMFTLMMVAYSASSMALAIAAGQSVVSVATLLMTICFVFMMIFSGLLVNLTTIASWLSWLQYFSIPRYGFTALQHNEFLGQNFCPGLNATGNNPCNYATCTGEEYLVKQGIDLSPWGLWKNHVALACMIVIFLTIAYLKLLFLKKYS

Row | SMILES | EC50
1 | O=C1c2c(O)ccc(O)c2C(=O)c2c(NCCNCCO)ccc(NCCNCCO)c21 [mitoxantrone] | 18.3 ± 2.2 µM
2 | COc1cc2c(cc1OC)CN(CCc1ccc(NC(=O)c3cc(OC)c(OC)cc3NC(=O)c3cnc4ccccc4c3)cc1)CC2 [tariquidar] | 0.08 ± 0.01 µM
3 | CC[C@@]1(O)C(=O)OCc2c1cc1n(c2=O)Cc2cc3c(CN(C)C)c(O)ccc3nc2-1 [topotecan] | 11.7 ± 0.3 µM

From article doi:10.1101/2021.02.18.431786v1 (biorxiv, 2021)
